From US10590113B2, “6-hydroxy-4-oxo-1,4-dihydropyrimidine-5-carboxamides as APJ agonists” (priority 2016, dated 2020)

Molecular target: T1, human APJ receptor (Homo sapiens, UniProt P35414)
T1 construct: expressed in transfected cells; host or cells: HEK293
T1 sequence (P35414 1-380): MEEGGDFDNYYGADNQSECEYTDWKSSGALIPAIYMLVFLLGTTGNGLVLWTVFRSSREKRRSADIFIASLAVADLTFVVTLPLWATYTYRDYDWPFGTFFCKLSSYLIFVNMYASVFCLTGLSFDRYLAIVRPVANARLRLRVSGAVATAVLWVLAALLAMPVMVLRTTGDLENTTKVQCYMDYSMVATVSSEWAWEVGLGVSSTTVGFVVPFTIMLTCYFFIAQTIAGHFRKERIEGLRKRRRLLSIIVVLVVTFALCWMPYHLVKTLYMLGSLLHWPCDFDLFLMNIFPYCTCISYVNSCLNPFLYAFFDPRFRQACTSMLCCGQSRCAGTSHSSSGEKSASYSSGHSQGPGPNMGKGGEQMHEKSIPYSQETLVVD
Assay: Intracellular cAMP Accumulation Assay (APJ hcAMP, HTRF)
Type: cell-based
Conditions: not given
Experimental: Intracellular cAMP Accumulation Assay
HEK293 cells stably expressing human APJ receptor were used to assess the activity of compounds. Cultured cells were detached and resuspended in the cAMP
Homogeneous Time-Resolved Fluorescence (HTRF) assay buffer (Cisbio cat; #62AM4PEJ). The assay was performed in 384-well assay plates (Perkin-Elmer; cat #6008289) according to assay protocol provided by the manufacturer. Serial dilutions of a compound together with assay buffer containing […] IBMX and 2 μM forskolin were added to each well containing 5,000 cells and incubated for 30 minutes at room temperature. Subsequently, cAMP D2 reagent was added in the lysis buffer followed by the EuK antibody (Cisbio; cat #62AM4PEJ) and incubated for 60 min. The fluorescence emission ratio was measured using fluorometer. The intracellular cAMP concentrations (compound-stimulated inhibition of forskolin-mediated cAMP production) were calculated by extrapolation from a standard curve using known cAMP concentrations. The EC50 values were obtained by fitting the data to a sigmoidal concentration-response curve with variable slope.
The EC50 value of each compound is presented at the end of the example description.
The biological activity of the exemplified compounds of this invention determined by the assay described above is shown at the end of each example.

EC50 [nM]	Structure (SMILES)
0.01 to 10	CCCCc1nc(=O)c(C(=O)N2CCC(c3ccccn3)C2)c(O)n1-c1c(OC)cccc1OC (single isomer, unassigned) [Example 68, 2-butyl-1-(2,6-dimethoxyphenyl)-6-hydroxy-5-[3-(pyridin-2-yl)pyrrolidine-1-carbonyl]-1,4-dihydropyrimidin-4-one]
0.01 to 10	CCCCc1nc(=O)c(C(=O)N2CCC(c3cccnc3)C2)c(O)n1-c1c(OC)cccc1OC (single isomer, unassigned) [Example 75, 2-butyl-1-(2,6-dimethoxyphenyl)-6-hydroxy-5-[3-(pyridin-3-yl)pyrrolidine-1-carbonyl]-1,4-dihydropyrimidin-4-one]

Same assay, conditions: human APJ, intracellular cAMP accumulation; read-out: hAPJ cAMP EC50 Potency range

EC50 [nM]	Structure (SMILES)
0.01 to 10	CCOCc1nc(=O)c(C(=O)N2CCC(c3ccc(F)cc3)C2)c(O)n1-c1c(OC)cccc1OC (single isomer, unassigned) [Example 57, 1-(2,6-dimethoxyphenyl)-2-(ethoxymethyl)-5-[3-(4-fluorophenyl)pyrrolidine-1-carbonyl]-6-hydroxy-1,4-dihydropyrimidin-4-one]
0.01 to 10	CCCCc1nc(=O)c(C(=O)N2CCC(c3ccc(F)cc3)C2)c(O)n1-c1c(OC)cccc1OC (single isomer, unassigned) [Example 77, 2-butyl-1-(2,6-dimethoxyphenyl)-5-[3-(4-fluorophenyl)pyrrolidine-1-carbonyl]-6-hydroxy-1,4-dihydropyrimidin-4-one]
0.01 to 10	CCCCc1nc(=O)c(C(=O)N2CCC(c3cccc(F)c3)C2)c(O)n1-c1c(OC)cccc1OC (single isomer, unassigned) [Example 78, 2-butyl-1-(2,6-dimethoxyphenyl)-5-[3-(3-fluorophenyl)pyrrolidine-1-carbonyl]-6-hydroxy-1,4-dihydropyrimidin-4-one]
0.01 to 10	CCCCc1nc(=O)c(C(=O)N2CCC(c3ccc(F)cc3)C2)c(O)n1-c1c(OC)cccc1OC (single isomer, unassigned) [Example 79, 2-butyl-1-(2,6-dimethoxyphenyl)-5-[3-(4-fluorophenyl)pyrrolidine-1-carbonyl]-6-hydroxy-1,4-dihydropyrimidin-4-one]
0.01 to 10	CCCCc1nc(=O)c(C(=O)N2CCC(c3cccc(F)c3)C2)c(O)n1-c1c(OC)cccc1OC (single isomer, unassigned) [Example 80, 2-butyl-1-(2,6-dimethoxyphenyl)-5-[3-(3-fluorophenyl)pyrrolidine-1-carbonyl]-6-hydroxy-1,4-dihydropyrimidin-4-one]
0.01 to 10	CCOCc1nc(=O)c(C(=O)N2CCC(c3ccc(F)cc3)C2)c(O)n1-c1c(OC)cccc1OC (single isomer, unassigned) [Example 81, 1-(2,6-dimethoxyphenyl)-2-(ethoxymethyl)-5-[3-(4-fluorophenyl)pyrrolidine-1-carbonyl]-6-hydroxy-1,4-dihydropyrimidin-4-one]
0.01 to 10	CCOCc1nc(=O)c(C(=O)N2CCC(c3cccnc3)C2)c(O)n1-c1c(OC)cccc1OC (single isomer, unassigned) [Example 82, 1-(2,6-dimethoxyphenyl)-2-(ethoxymethyl)-6-hydroxy-5-[3-(pyridin-3-yl)pyrrolidine-1-carbonyl]-1,4-dihydropyrimidin-4-one]
0.01 to 10	CCOCc1nc(=O)c(C(=O)N2CCC(c3cccc(F)c3)C2)c(O)n1-c1c(OC)cccc1OC (single isomer, unassigned) [Example 83, 1-(2,6-dimethoxyphenyl)-2-(ethoxymethyl)-5-[3-(3-fluorophenyl)pyrrolidine-1-carbonyl]-6-hydroxy-1,4-dihydropyrimidin-4-one]
0.01 to 10	CCOCc1nc(=O)c(C(=O)N2CCC(c3cccc(F)c3)C2)c(O)n1-c1c(OC)cccc1OC (single isomer, unassigned) [Example 84, 1-(2,6-dimethoxyphenyl)-2-(ethoxymethyl)-5-[3-(3-fluorophenyl)pyrrolidine-1-carbonyl]-6-hydroxy-1,4-dihydropyrimidin-4-one]
0.01 to 10	CCOCc1nc(=O)c(C(=O)N2CCC(c3cccnc3)C2)c(O)n1-c1c(OC)cccc1OC (single isomer, unassigned) [Example 85, 1-(2,6-dimethoxyphenyl)-2-(ethoxymethyl)-6-hydroxy-5-[3-(pyridin-3-yl)pyrrolidine-1-carbonyl]-1,4-dihydropyrimidin-4-one]
0.01 to 10	COc1cccc(OC)c1-n1c(COC(C)C)nc(=O)c(C(=O)N2CCC(c3ccccc3Cl)C2)c1O (single isomer, unassigned) [Example 92, 5-[3-(2-chlorophenyl)pyrrolidine-1-carbonyl]-1-(2,6-dimethoxyphenyl)-6-hydroxy-2-[(propan-2-yloxy)methyl]-1,4-dihydropyrimidin-4-one]
0.01 to 10	COc1cccc(OC)c1-n1c(COC(C)C)nc(=O)c(C(=O)N2CCC(c3ccccc3F)C2)c1O (single isomer, unassigned) [Example 93, 1-(2,6-dimethoxyphenyl)-5-[3-(2-fluorophenyl)pyrrolidine-1-carbonyl]-6-hydroxy-2-[(propan-2-yloxy)methyl]-1,4-dihydropyrimidin-4-one]
0.01 to 10	COc1cccc(OC)c1-n1c(COC(C)C)nc(=O)c(C(=O)N2CCC(c3ccc(F)cc3)C2)c1O (single isomer, unassigned) [Example 94, 1-(2,6-dimethoxyphenyl)-5-[3-(4-fluorophenyl)pyrrolidine-1-carbonyl]-6-hydroxy-2-[(propan-2-yloxy)methyl]-1,4-dihydropyrimidin-4-one]
0.01 to 10	COc1cccc(OC)c1-n1c(COC(C)C)nc(=O)c(C(=O)N2CCC(c3cccc(F)c3)C2)c1O (single isomer, unassigned) [Example 95, 1-(2,6-dimethoxyphenyl)-5-[3-(3-fluorophenyl)pyrrolidine-1-carbonyl]-6-hydroxy-2-[(propan-2-yloxy)methyl]-1,4-dihydropyrimidin-4-one]
0.01 to 10	COc1cccc(OC)c1-n1c(COC(C)C)nc(=O)c(C(=O)N2CCC(c3cccc(F)c3)C2)c1O (single isomer, unassigned) [Example 97, 1-(2,6-dimethoxyphenyl)-5-[3-(3-fluorophenyl)pyrrolidine-1-carbonyl]-6-hydroxy-2-[(propan-2-yloxy)methyl]-1,4-dihydropyrimidin-4-one]
0.01 to 10	COc1cccc(OC)c1-n1c(COC(C)C)nc(=O)c(C(=O)N2CCC(c3ccccc3C)C2)c1O (single isomer, unassigned) [Example 98, 1-(2,6-dimethoxyphenyl)-6-hydroxy-5-[3-(2-methylphenyl)pyrrolidine-1-carbonyl]-2-[(propan-2-yloxy)methyl]-1,4-dihydropyrimidin-4-one]
0.01 to 10	COc1cccc(OC)c1-n1c(COC(C)C)nc(=O)c(C(=O)N2CCC(c3ccccc3C(F)(F)F)C2)c1O (single isomer, unassigned) [Example 99, 1-(2,6-dimethoxyphenyl)-6-hydroxy-2-[(propan-2-yloxy)methyl]-5-{3-[2-(trifluoromethyl)phenyl]pyrrolidine-l-carbonyl}-1,4-dihydropyrimidin-4-one]
0.01 to 10	COc1cccc(OC)c1-n1c(COC2CC2)nc(=O)c(C(=O)N2CCC(c3ccc(F)cc3)C2)c1O (single isomer, unassigned) [Example 100, 2-(cyclopropoxymethyl)-1-(2,6-dimethoxyphenyl)-5-[3-(4-fluorophenyl)pyrrolidine-1-carbonyl]-6-hydroxy-1,4-dihydropyrimidin-4-one]
0.01 to 10	COc1cccc(OC)c1-n1c(COC(C)C)nc(=O)c(C(=O)N2CCC(c3ccccc3C(F)(F)F)C2)c1O (single isomer, unassigned) [Example 101, 1-(2,6-dimethoxyphenyl)-6-hydroxy-2-[(propan-2-yloxy)methyl]-5-{3-[2-(trifluoromethyl)phenyl]pyrrolidine-1-carbonyl}-1,4-dihydropyrimidin-4-one]

Same assay, conditions: read-out: hAPJ cAMP EC50 Potency range; human APJ, intracellular cAMP accumulation

EC50 [nM]	Structure (SMILES)
0.01 to 10	CCCCc1nc(=O)c(C(=O)N2CCC(c3ccccn3)C2)c(O)n1-c1c(OC)cccc1OC (single isomer, unassigned) [Example 70, 2-butyl-1-(2,6-dimethoxyphenyl)-6-hydroxy-5-[3-(pyridin-2-yl)pyrrolidine-1-carbonyl]-1,4-dihydropyrimidin-4-one]
0.01 to 10	CCCCc1nc(=O)c(C(=O)N2CCC(c3cccnc3)C2)c(O)n1-c1c(OC)cccc1OC (single isomer, unassigned) [Example 76, 2-butyl-1-(2,6-dimethoxyphenyl)-6-hydroxy-5-[3-(pyridin-3-yl)pyrrolidine-1-carbonyl]-1,4-dihydropyrimidin-4-one]
